Assay results taken from patent US20240100083A1, “IMMUNOTHERAPY FOR CANCER” (THE PROVOST, FELLOWS, FOUNDATION SCHOLARS, AND THE OTHER …, priority 2020, published 2024).

Test system: B16 melanoma cells
Experiment: costimulatory/co-inhibitory molecule expression on B16 melanoma cells (flow cytometry)
Format: cell-based
Set-up: key to Upregulated (√)/No change (—) Costimulatory MHC CI / Upregulated (√)/No change (—) Costimulatory CD40 / Upregulated (√)/No change (—) Costimulatory CD80 / Upregulated (√)/No change (—) Costimulatory CD86 / Upregulated (√)/No change (—) Coinhibitory TIGIT / Upregulated (√)/No change (—) Coinhibitory PD-L1 / Upregulated (√)/No change (—) Coinhibitory PD-1: upregulated (√); no change (—)
Conditions: 24 hours, C90, C100, protasan 40 μg/ml, CpG 4 μg/ml, Etoposide 200 μM, DMXAA 10 μg/ml; for Fold increase in MFI Coinhibitory PD-1 / Fold increase in MFI Coinhibitory PD-L1 / Fold increase in MFI Coinhibitory TIGIT / Fold increase in MFI Costimulatory CD40 / Fold increase in MFI Costimulatory CD80 / Fold increase in MFI Costimulatory CD86 / Fold increase in MFI Costimulatory MHC CI: compared to unstimulated control
Experimental: Flow cytometric analysis of costimulatory molecule expression on B16-F10 cells: 2×10^5 B16 melanoma cells were stimulated with media or 40 μg/ml, C90, C100 or protasan for 24 hours in 24 well plates. Cells were removed from wells using ice cold PBS-EDTA, transferred to labelled FACS tubes and washed with 2 mL of PBS. Cells were stained with BV510 viability dye (1 in 1000 dilition) for 15 minutes at room temperature. Cells were then washed in PBS, and stained for cell surface markers for 30 minutes at room temperature. Cells were then washed in PBS, resuspended in […] of FACs buffer, with samples acquired via BD FACSCanto and the data analysed using Flowjo™ software (Treestar, Oregon).

SMILES	Upregulated (√)/No change (—) Coinhibitory PD-1	Upregulated (√)/No change (—) Coinhibitory PD-L1	Upregulated (√)/No change (—) Coinhibitory TIGIT	Upregulated (√)/No change (—) Costimulatory CD40	Upregulated (√)/No change (—) Costimulatory CD80	Upregulated (√)/No change (—) Costimulatory CD86	Upregulated (√)/No change (—) Costimulatory MHC CI	Fold increase in MFI Coinhibitory PD-1 [fold]	Fold increase in MFI Coinhibitory PD-L1 [fold]	Fold increase in MFI Coinhibitory TIGIT [fold]	Fold increase in MFI Costimulatory CD40 [fold]	Fold increase in MFI Costimulatory CD80 [fold]	Fold increase in MFI Costimulatory CD86 [fold]	Fold increase in MFI Costimulatory MHC CI [fold]
Cc1ccc2c(=O)c3cccc(CC(=O)O)c3oc2c1C [DMXAA]	√	√	√	—	—	—	√	1.2	1.2	1.3	1.1	1.0	1.1	1.2
COc1cc([C@@H]2c3cc4c(cc3[C@@H](O[C@@H]3O[C@@H]5CO[C@@H](C)O[C@H]5[C@H](O)[C@H]3O)[C@H]3COC(=O)[C@H]23)OCO4)cc(OC)c1O [Etoposide]	—	√	√ √	√ √	√ √	√ √	√ √ √	1.0	1.6	1.7	1.9	2.2	1.9	3.0
